Where a name gives a salt, the structure may show the parent alone.

Consider twelve compounds from patent US9334268B2, “4-amino-imidazoquinoline compounds” (Hoffmann-La Roche Inc., priority 2014, dated 2016).

Test [1] addresses human TLR7 (Homo sapiens (Human), UniProt Q9NYK1). Put plainly: HEK-Blue human TLR7 SEAP reporter assay. It counts as cell-based. The conditions noted are these: for EC50: HEK-Blue human TLR7 cells, NF-κB-regulated SEAP reporter, stimulation for 24 hr. How it is done:
(§1) For TLR8 and TLR7 activity testing, HEK-Blue human TLR8 or TLR7 cells, respectively, (Invivogen, San Diego, Calif., USA) transfected with a SEAP reporter (secreted embryonic alkaline phosphatase) construct were used, in which the reporter expression is regulated by the NF-κB promoter upon stimulation for 24 hr. The reporter activity was determined using Quanti Blue kit (Invivogen, San Diego, Calif., USA) at a wavelength of 640 nm.
(§2) EC50 values were determined using Activity Base analysis (ID Business Solution, Limited).

Test [2] concerns the target human TLR8 (Homo sapiens (Human), UniProt Q9NR97). Put plainly: HEK-Blue human TLR8 SEAP reporter assay. It counts as cell-based. The conditions noted are these: HEK-Blue human TLR8 cells, NF-κB-regulated SEAP reporter, stimulation for 24 hr. How it is done: as §1, §2

human TLR7, sequence (Q9NYK1 27-1049): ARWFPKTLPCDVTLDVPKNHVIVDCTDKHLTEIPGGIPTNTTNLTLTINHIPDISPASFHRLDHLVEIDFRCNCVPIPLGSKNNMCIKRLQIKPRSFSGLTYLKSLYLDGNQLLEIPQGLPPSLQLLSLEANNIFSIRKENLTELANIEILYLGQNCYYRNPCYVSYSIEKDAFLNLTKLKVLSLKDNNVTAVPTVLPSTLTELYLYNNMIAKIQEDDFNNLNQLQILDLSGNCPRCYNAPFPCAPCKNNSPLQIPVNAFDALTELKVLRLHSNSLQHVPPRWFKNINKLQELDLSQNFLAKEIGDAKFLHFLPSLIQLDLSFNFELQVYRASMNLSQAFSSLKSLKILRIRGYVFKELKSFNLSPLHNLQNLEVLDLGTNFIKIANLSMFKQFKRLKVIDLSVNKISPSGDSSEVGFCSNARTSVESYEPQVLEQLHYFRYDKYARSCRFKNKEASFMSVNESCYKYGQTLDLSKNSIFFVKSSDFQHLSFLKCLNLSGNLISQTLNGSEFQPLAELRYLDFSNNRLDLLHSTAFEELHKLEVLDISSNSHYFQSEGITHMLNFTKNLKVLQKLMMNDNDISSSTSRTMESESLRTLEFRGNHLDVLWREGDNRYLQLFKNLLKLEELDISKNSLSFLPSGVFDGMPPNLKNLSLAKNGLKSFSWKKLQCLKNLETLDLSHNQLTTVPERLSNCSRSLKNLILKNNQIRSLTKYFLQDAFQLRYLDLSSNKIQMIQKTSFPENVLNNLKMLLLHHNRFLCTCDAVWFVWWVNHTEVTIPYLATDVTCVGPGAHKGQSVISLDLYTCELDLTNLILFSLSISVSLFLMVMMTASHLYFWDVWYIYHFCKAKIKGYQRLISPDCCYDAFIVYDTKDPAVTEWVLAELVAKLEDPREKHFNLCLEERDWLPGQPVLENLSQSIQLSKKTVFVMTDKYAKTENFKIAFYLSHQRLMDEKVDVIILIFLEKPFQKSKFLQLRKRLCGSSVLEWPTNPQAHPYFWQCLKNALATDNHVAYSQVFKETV
human TLR8, sequence (Q9NR97 27-1041): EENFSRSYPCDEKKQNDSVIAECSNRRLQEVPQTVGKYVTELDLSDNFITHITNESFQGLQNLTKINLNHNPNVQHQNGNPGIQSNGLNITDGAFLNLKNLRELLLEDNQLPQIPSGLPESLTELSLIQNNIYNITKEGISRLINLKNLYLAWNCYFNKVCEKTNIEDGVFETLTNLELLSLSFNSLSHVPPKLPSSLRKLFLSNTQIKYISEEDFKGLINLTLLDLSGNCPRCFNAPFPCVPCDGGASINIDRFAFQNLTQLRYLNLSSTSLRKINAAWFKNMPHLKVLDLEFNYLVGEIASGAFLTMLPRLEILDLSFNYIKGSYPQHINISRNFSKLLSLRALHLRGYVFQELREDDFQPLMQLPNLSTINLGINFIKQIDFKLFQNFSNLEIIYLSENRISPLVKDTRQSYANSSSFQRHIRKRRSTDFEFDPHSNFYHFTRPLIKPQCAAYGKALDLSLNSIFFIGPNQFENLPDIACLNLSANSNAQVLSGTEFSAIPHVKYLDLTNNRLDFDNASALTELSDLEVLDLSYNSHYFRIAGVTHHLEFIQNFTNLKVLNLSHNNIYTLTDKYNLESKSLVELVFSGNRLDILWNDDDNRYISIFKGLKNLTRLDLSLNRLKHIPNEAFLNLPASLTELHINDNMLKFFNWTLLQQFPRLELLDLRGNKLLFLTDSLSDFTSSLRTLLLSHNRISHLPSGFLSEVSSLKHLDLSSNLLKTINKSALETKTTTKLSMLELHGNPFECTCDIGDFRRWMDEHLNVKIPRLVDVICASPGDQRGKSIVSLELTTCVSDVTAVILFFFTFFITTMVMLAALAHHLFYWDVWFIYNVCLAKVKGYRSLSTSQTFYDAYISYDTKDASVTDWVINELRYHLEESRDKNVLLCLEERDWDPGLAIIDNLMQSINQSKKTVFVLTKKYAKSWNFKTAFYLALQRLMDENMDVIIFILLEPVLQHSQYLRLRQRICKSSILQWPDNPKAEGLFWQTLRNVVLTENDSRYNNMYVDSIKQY

On to `CCOCc1nc2c(N)nc3ccccc3c2n1CC(C)(C)OCCN` [Example 1, 1-(2-(2-Aminoethoxy)-2-methylpropyl)-2-(ethoxymethyl)-1H-imidazo[4,5-c]quinolin-4-amine], for which the EC50 in test [1] is 60 nM; in test [2], 580 nM.

For the compound `CCCCCc1nc2c(N)nc3ccccc3c2n1CC(C)(C)OCCN` [Example 10, 1-(2-(2-Aminoethoxy)-2-methylpropyl)-2-pentyl-1H-imidazo[4,5-c]quinolin-4-amine], the 50% effective concentration (EC50) was determined as 152 nM in test [1] and 2700 nM in test [2].

`CCOCc1nc2c(N)nc3ccccc3c2n1CC(C)(C)OCCNC(C)=O` [Example 4, N-(2-(1-(4-Amino-2-(ethoxymethyl)-1H-imidazo[4,5-c]quinolin-1-yl)-2-methylpropan-2-yloxy)ethyl)acetamide] came in with an EC50 in test [1] of 27 nM.

`CCOCc1nc2c(N)nc3ccccc3c2n1CCOCCN` [1-(2-(2-Aminoethoxy)ethyl)-2-(ethoxymethyl)-1H-imidazo[4,5-c]quinolin-4-amine, reference compound]: the EC50 in test [1] is over 100000 nM; in test [2] it was 49000 nM. Further, the “cellular potency at TLR7” value in test [1] (statement in words, compared with resiquimod) is on record as “do not show the required activity”.

On to `CCOCc1nc2c(N)nc3cc(CCC(=O)OCC)ccc3c2n1CC(C)(C)OC(=O)CN` [Example 9, Ethyl 3-(4-amino-1-(2-(2-aminoacetoxy)-2-methylpropyl)-2-(ethoxymethyl)-1H-imidazo[4,5-c]quinolin-7-yl)propanoate], for which the EC50 turned out to be 55 nM in test [1] and 54 nM in test [2].

For the compound `CCOCc1nc2c(N)nc3cc(CCC(=O)OCC)ccc3c2n1CC(C)(C)OCCN` [Example 8, Ethyl 3-(4-amino-1-(2-(2-aminoethoxy)-2-methylpropyl)-2-(ethoxymethyl)-1H-imidazo[4,5-c]quinolin-7-yl)propanoate hydrochloride], the EC50 in test [1] amounted to 134 nM; in test [2], 256 nM.

With `CCOCc1nc2c(N)nc3cc(Br)ccc3c2n1CC(C)(C)OCCN` [Example 11, 1-(2-(2-Aminoethoxy)-2-methylpropyl)-7-bromo-2-(ethoxymethyl)-1H-imidazo[4,5-c]quinolin-4-amine hydrochloride], the figures for the concentration for a half-maximal effect (EC50) in test [1] and in test [2] were 130 nM and 2900 nM, respectively.

On to `CCOCc1nc2c(N)nc3ccccc3c2n1CC(C)(C)OCCNC(=O)c1cccnc1` [Example 3, N-(2-(1-(4-Amino-2-(ethoxymethyl)-1H-imidazo[4,5-c]quinolin-1-yl)-2-methylpropan-2-yloxy)ethyl)nicotinamide], for which the EC50 came out at 223 nM in test [1] and 35000 nM in test [2].

Turning to `CCOCc1nc2c(N)nc3cc(/C=C/C(=O)OCC)ccc3c2n1CC(C)(C)OCCN` [Example 7, (E)-Ethyl 3-(4-amino-1-(2-(2-aminoethoxy)-2-methylpropyl)-2-(ethoxymethyl)-1H-imidazo[4,5-c]quinolin-7-yl)acrylate], the half-maximal effective concentration (EC50) in test [1] turned out to be 139 nM; in test [2], 1080 nM.

For the compound `CCOCc1nc2c(N)nc3ccccc3c2n1CC(C)(C)OCCNC(=O)CCCCCNC(=O)OC(C)(C)C` [Example 6, tert-Butyl 6-(2-(1-(4-amino-2-(ethoxymethyl)-1H-imidazo[4,5-c]quinolin-1-yl)-2-methylpropan-2-yloxy)ethylamino)-6-oxohexylcarbamate], the EC50 in test [1] was 195 nM; in test [2] it was 2900 nM.

Take `CCOCc1nc2c(N)nc3ccccc3c2n1CC(C)(C)OC(=O)CN` [Example 2, 1-(4-Amino-2-(ethoxymethyl)-1H-imidazo[4,5-c]quinolin-1-yl)-2-methylpropan-2-yl 2-aminoacetate]: the EC50 in test [1] was found to be 50 nM; in test [2], 80 nM.

For `CCOCc1nc2c(N)nc3ccccc3c2n1CC(C)(C)OCCNCCCO` [Example 5, 3-(2-(1-(4-Amino-2-(ethoxymethyl)-1H-imidazo[4,5-c]quinolin-1-yl)-2-methylpropan-2-yloxy)ethylamino)propan-1-ol], the EC50 in test [1] was 900 nM; in test [2], 10500 nM.
